These results are taken from patent US20040121962A1, “Prodrugs of excitatory amino acids” (priority 2001, published 2004).

The target of one assay is T1, human mGluR2 (Homo sapiens, UniProt Q14416).
T1 construct: expressed in transfected cells
Description: Displacement of [3H]LY341495 binding to cell membranes, human mGluR2. The following applies: read-out: Displacement of 3H-LY341495 binding (Ki, nM) (mean ± S.E., N = 3).

The target of the next assay is T2, human mGluR3 (Homo sapiens, UniProt Q14832).
T2 construct: expressed in transfected cells
T2 sequence (Q14832 23-879): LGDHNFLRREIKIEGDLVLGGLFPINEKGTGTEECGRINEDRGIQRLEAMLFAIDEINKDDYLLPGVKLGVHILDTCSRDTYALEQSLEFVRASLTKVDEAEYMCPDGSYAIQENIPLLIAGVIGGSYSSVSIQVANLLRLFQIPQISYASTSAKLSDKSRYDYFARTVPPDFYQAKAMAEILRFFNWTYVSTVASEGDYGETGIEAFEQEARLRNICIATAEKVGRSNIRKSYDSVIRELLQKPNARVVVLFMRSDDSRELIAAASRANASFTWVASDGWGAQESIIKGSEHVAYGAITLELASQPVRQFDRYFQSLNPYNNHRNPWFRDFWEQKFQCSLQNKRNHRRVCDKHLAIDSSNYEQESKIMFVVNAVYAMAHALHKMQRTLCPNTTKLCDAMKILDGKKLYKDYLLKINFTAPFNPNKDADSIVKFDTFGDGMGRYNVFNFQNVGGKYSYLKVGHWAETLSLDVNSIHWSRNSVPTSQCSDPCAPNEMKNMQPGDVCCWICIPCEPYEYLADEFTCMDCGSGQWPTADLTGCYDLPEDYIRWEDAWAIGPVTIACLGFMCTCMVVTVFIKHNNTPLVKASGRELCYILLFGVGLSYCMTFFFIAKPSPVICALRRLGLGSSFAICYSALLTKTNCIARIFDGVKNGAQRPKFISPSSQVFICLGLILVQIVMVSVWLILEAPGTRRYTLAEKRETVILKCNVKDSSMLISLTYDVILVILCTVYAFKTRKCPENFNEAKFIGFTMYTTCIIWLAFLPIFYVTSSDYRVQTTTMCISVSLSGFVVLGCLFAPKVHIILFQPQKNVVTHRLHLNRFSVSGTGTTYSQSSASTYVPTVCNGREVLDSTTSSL
Description: Displacement of [3H]LY341495 binding to cell membranes, human mGluR3. The following applies: read-out: Displacement of 3H-LY341495 binding (Ki, nM) (mean ± S.E., N = 3).

Assay [1] relates to fear-potentiated startle (mGlu2/3 receptor linked). Description: Rat fear-potentiated startle anxiety model. The note with it: for MED (1 hour pre-treatement): fed rats, oral, 1 hour pre-treatment. It is filed as in vivo. An excerpt:
This model was specifically chosen, as it is highly sensitive to mGlu2/3 agonists such as LY354740 and compounds of the present invention. (See, Helton […]., Monn […]., and Kallman M. J., Anxiolytic and side-effect profile of LY354740: A potent, high selective, orally active agonist for group II metabotropic glutamate receptors, J. Pharmacol. Exp. Ther. 284: 651-660 (1998)). To verify that the actions of a compound of formula I in this model were mGlu2/3 receptor mediated, as has been shown previously for LY354740 (See, […]., Ornstein P. L., Monn J. A., and Schoepp D. D., Actions of mGlu receptor agonists on fear-conditioning versus fear-expression in rats, Neuropharmacology, 38:[…] (#144) (1999)), the ability of LY341495 (an mGlu2/3 receptor antagonist) (See, Kingston A. E., Ornstein P. L., Wright R. A., Johnson […]., Burnett […]., Wu S., and Schoepp D. […] As a positive control in each experiment, diazepam (0.6 mg/kg i.p.) was used. All experiments were performed in fed rats. In the fear potentiated startle model, animals are exposed to a neutral stimulus such as light (conditioned stimulus) with an aversive stimulus such as a shock (unconditioned stimulus). Following conditioning, when the animals are presented with a loud acoustic stimulus, larger startle responses are elicited when the startle stimulus is preceded by light. Male Long Evans rats (180-400 g) or male NIH Swiss mice (18-35 g) were obtained from Harlan Sprague-Dawley, Cumberland, Ind., USA and acclimated at least 3 days before testing. Animals were housed at 23±2° C. (relative humidity 30% to 70%) and given Purina Certified Rodent Chow and water ad libitum. The photoperiod was 12 hours of light and 12 hours of dark, with dark onset at approximately 1800 hours. Test compounds were dissolved in a vehicle of purified water and neutralized with 5 N NaOH to a pH of 7-8 when applicable. Diazepam (Sigma Chemical Company, St. […] Control animals received the respective vehicle. […]

Assay [2] deals with mGlu2/3 receptors in rat forebrain membranes. The following applies: read-out: Displacement of 3H-LY341495 binding (Ki, nM) (mean ± S.E., N = 3).
Description: (§1) To study the ability to affect receptor binding of compounds of the present invention in comparison to LY354740, displacement of a high affinity mGluR2 antagonist radioligand [^3H]LY341495 to cell membranes from human mGluR2, human mGluR3, and native rat brain tissues was determined.

T1 sequence (Q14416 19-872): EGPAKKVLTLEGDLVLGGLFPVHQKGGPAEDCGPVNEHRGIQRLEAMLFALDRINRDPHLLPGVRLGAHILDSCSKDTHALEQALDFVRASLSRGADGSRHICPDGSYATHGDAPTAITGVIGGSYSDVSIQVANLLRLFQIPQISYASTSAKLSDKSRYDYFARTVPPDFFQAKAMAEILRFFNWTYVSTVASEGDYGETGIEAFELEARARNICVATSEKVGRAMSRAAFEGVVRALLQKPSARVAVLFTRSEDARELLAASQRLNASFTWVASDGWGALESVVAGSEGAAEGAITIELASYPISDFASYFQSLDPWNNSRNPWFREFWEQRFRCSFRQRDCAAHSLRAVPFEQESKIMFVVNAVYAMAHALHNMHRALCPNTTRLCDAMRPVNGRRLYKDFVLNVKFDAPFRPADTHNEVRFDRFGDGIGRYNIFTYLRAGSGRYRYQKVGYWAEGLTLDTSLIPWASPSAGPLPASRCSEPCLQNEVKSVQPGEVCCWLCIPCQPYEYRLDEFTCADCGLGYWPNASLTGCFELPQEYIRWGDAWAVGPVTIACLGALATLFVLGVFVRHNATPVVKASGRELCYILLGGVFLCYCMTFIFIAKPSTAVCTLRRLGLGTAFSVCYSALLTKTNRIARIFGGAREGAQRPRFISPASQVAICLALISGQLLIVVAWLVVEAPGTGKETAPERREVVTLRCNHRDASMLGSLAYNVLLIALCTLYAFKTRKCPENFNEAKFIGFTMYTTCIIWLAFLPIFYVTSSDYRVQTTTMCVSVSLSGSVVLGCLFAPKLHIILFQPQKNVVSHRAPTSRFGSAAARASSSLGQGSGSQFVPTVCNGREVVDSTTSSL
Description for human mGluR2: as §1
Description for human mGluR3: as §1

Regarding `NC1(C(=O)O)CCC2C(C(=O)O)C21` (single isomer, unassigned; (+)) [LY354740, (+)-2-aminobicyclo[3.1.0]hexane-2,6-dicarboxylic acid], the values for the Ki (at human mGluR2; on human mGluR3; in assay [2]) were 84.7 ± 11.1 nM, 126 ± 4.8 nM and 80 ± 7.3 nM, respectively. Also, the “MED (1 hour pre-treatement)” value in assay [1] is 3.0 mg/kg p.o.
As for `C[C@H](N)C(=O)N[C@@]1(C(=O)O)CC[C@H]2[C@H](C(=O)O)[C@H]21` [Formula I, (1S,2S,5R,6S)-2-[(2′S)-(2′-Amino)-propionyl]amino-bicyclo[3.1.0]hexane-2,6-dicarboxylic acid], the Ki at human mGluR2 and on human mGluR3 was above 10000 nM in each case. The “MED (1 hour pre-treatement)” value in assay [1] is given as 0.01 mg/kg p.o.
`C[C@H](N)C(=O)N[C@@]1(C(=O)O)CC[C@H]2[C@H](C(=O)O)[C@H]21.Cl` [Example 3, (1S,2S,5R,6S)-2-[(2′S)-(2′-Amino)-propionyl]amino-bicyclo[3.1.0]hexane-2,6-dicarboxylic acid hydrochloride]: in assay [1] (preclinical studies), the “oral potency in the treatment of anxiety” value is recorded as “greatly enhanced oral potency”.
